According to PubChem BioAssay (NCI):
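Five concentrations, 48 hours, 96-well plates. Abbreviation: GI50, concentration required for 50% inhibition of growth. TGI: total growth inhibition.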

Assays:
Assay in all cases: NCI-60 cell line screen, 48 h
MOLT-4 leukemia = tested on: MOLT-4 leukemia
SF-539 CNS = tested on: SF-539 CNS
K-562 leukemia = tested on: K-562 leukemia
OVCAR-8 ovarian = tested on: OVCAR-8 ovarian
RXF 393 renal = tested on: RXF 393 renal
SF-268 CNS = tested on: SF-268 CNS
RPMI-8226 leukemia = tested on: RPMI-8226 leukemia
HCT-15 colon = tested on: HCT-15 colon
786-0 renal = tested on: 786-0 renal
LOX IMVI melanoma = tested on: LOX IMVI melanoma

For `Cc1cc(N/N=C/c2nc(-c3ccc(Cl)cc3)oc2C)c2cc(Cl)ccc2n1`, which GI50 (MOLT-4 leukemia) is on record?
Its GI50 is 2.34 µM.

What about the TGI (MOLT-4 leukemia) of the same compound?
The TGI was 9.11 µM.

What about the GI50 (SF-539 CNS) of the same compound?
The GI50 was 1.88 µM.

What about the TGI (SF-539 CNS) of the same compound?
Its TGI is 3.46 µM.

What about the GI50 (K-562 leukemia) of the same compound?
The GI50 was 0.571 µM.

What about the TGI (K-562 leukemia) of the same compound?
Its TGI is 2.56 µM.

What about the GI50 (OVCAR-8 ovarian) of the same compound?
Its GI50 is 2.05 µM.

What about the TGI (OVCAR-8 ovarian) of the same compound?
The TGI was 5.06 µM.

What about the GI50 (RXF 393 renal) of the same compound?
The GI50 was 3.57 µM.

What about the TGI (RXF 393 renal) of the same compound?
The TGI was 15.8 µM.

What about the GI50 (SF-268 CNS) of the same compound?
Its GI50 is 3.15 µM.

What about the TGI (SF-268 CNS) of the same compound?
The TGI was 11.2 µM.

And the GI50 (RPMI-8226 leukemia)?
Its GI50 is 2.07 µM.

What about the TGI (RPMI-8226 leukemia) of the same compound?
Its TGI is 5.21 µM.

And the GI50 (HCT-15 colon)?
Its GI50 is 1.68 µM.

And the TGI (HCT-15 colon)?
Its TGI is 3.66 µM.

And the GI50 (786-0 renal)?
Its GI50 is 1.55 µM.

And the TGI (786-0 renal)?
The TGI was 2.99 µM.

What about the GI50 (LOX IMVI melanoma) of the same compound?
Its GI50 is 2.01 µM.

And the TGI (LOX IMVI melanoma)?
The TGI was 4.18 µM.

What does the source list for `CCOC(=O)[C@H]1Nc2ccc(OC)cc2C2c3ccccc3CC21` (stereo not given in full)?
TGI (MOLT-4 leukemia): > 100 µM; TGI (SF-539 CNS): > 100 µM; TGI (K-562 leukemia): > 100 µM; TGI (OVCAR-8 ovarian): > 100 µM; TGI (RXF 393 renal): > 100 µM; TGI (SF-268 CNS): > 100 µM; TGI (RPMI-8226 leukemia): > 100 µM; TGI (HCT-15 colon): > 100 µM; TGI (786-0 renal): > 100 µM; TGI (LOX IMVI melanoma): > 100 µM

With `COc1ccc(C2CC(n3nnnc3-c3ccccc3)=NN2)cc1` (stereo not given) as the compound, how does the GI50 (MOLT-4 leukemia) read?
Its GI50 is 5.99 µM.

What about the TGI (MOLT-4 leukemia) of the same compound?
Its TGI is 42.6 µM.

And the GI50 (SF-539 CNS)?
The GI50 was 2.34 µM.

What about the TGI (SF-539 CNS) of the same compound?
Its TGI is 5.87 µM.

What about the GI50 (K-562 leukemia) of the same compound?
Its GI50 is 0.486 µM.

What about the TGI (K-562 leukemia) of the same compound?
Its TGI is 28.2 µM.

What about the GI50 (OVCAR-8 ovarian) of the same compound?
Its GI50 is 4.07 µM.

What about the TGI (OVCAR-8 ovarian) of the same compound?
The TGI was 61.7 µM.

What about the GI50 (RXF 393 renal) of the same compound?
Its GI50 is 21.1 µM.

What about the TGI (RXF 393 renal) of the same compound?
Its TGI is 95.6 µM.

What about the GI50 (SF-268 CNS) of the same compound?
The GI50 was 6.38 µM.

And the TGI (SF-268 CNS)?
The TGI was 54.5 µM.

And the GI50 (RPMI-8226 leukemia)?
Its GI50 is 2.88 µM.

And the TGI (RPMI-8226 leukemia)?
The TGI was 53.5 µM.

What about the GI50 (HCT-15 colon) of the same compound?
Its GI50 is 2.16 µM.

And the TGI (HCT-15 colon)?
The TGI was 26.2 µM.

And the GI50 (786-0 renal)?
The GI50 was 4.61 µM.

What about the TGI (786-0 renal) of the same compound?
The TGI was 37.3 µM.

What about the GI50 (LOX IMVI melanoma) of the same compound?
The GI50 was 0.693 µM.

What about the TGI (LOX IMVI melanoma) of the same compound?
Its TGI is 15.2 µM.

What does the source list for `COc1ccc2c(c1)[n+]([O-])c(/C(C)=N/NC(=O)CC#N)c[n+]2[O-]`?
TGI (MOLT-4 leukemia): > 100 µM; TGI (SF-539 CNS): > 100 µM; TGI (K-562 leukemia): > 100 µM; TGI (OVCAR-8 ovarian): > 100 µM; TGI (RXF 393 renal): > 100 µM; TGI (SF-268 CNS): > 100 µM; TGI (RPMI-8226 leukemia): > 100 µM; TGI (HCT-15 colon): > 100 µM; TGI (786-0 renal): > 100 µM; TGI (LOX IMVI melanoma): > 100 µM

Which TGI (MOLT-4 leukemia) does the source give for `O=Cc1ccc(-c2cccs2)s1` here?
The TGI was over 100 µM.

What about the TGI (SF-539 CNS) of the same compound?
Its TGI is over 100 µM.

And the TGI (K-562 leukemia)?
Its TGI is 46.4 µM.

And the TGI (OVCAR-8 ovarian)?
The TGI was over 100 µM.

And the TGI (RXF 393 renal)?
The TGI was 65.3 µM.

What about the TGI (SF-268 CNS) of the same compound?
Its TGI is over 100 µM.

And the TGI (RPMI-8226 leukemia)?
The TGI was over 100 µM.

What about the TGI (HCT-15 colon) of the same compound?
Its TGI is over 100 µM.

What about the TGI (786-0 renal) of the same compound?
The TGI was over 100 µM.

And the TGI (LOX IMVI melanoma)?
Its TGI is over 100 µM.
